# Laboratory results taken from patent US8633167B2, “Method for the protection of trees” (Syngenta Crop Protection LLC, priority 2006, dated 2014).
# Tests used:
# [1] = test system: pine wood nematode, Bursaphelenchus xylophilis; conditions: cited from earlier work
# [2] = test system: Ips engravers beetles; experiment: Bolt study (Example 1): Ips attack and gallery construction on loblolly pine bolts cut after trunk injection; format: in vivo; conditions: for reduction of length of egg galleries compared to check trees / reduction of total number of egg galleries compared to check trees: May
# From the text: The intent of the study was to evaluate the efficacy of systemic injections of emamectin benzoate in reducing success of pine bark beetle attacks on loblolly pine and determine the duration of treatment efficacy. As SPB populations were extremely low in Texas in 2004, Ips engravers beetles were used as indicator species.
# Two 20-year-old, recently thinned loblolly pine plantations were selected on land owned by Temple-Inland Forest Products Corporation about 5 km south of Wells (Angelina County), Tex. Trees in one plantation were injected for use in a bolt study (Example 1). Trees in a 0.2 ha section of the second plantation were injected as part of a single-tree protection study (Example 2). A staging area also was set up in the second plantation where bolts from the first plantation were exposed to bark beetles and wood borers.
# Seventy-five loblolly pine trees, Pinus taeda L., 15-20 cm diameter at breast height (DBH), were selected in March 2004. Each treatment was injected into four cardinal points about 0.3 m above the ground on each of 15 trees in April (16th-23rd) using the new Arborjet Tree IV™ microinfusion system (Arborjet, Inc. Woburn, Mass.). The treatments included: • 1) Emamectin benzoate (Denim®, 1.92% ai, Syngenta Crop Science)—Denim® was mixed 1:1 with methanol and applied at 18.6 ml solution per inch of tree diameter at breast height (DBH) (=0.2 g active per inch DBH). • 2) Check (untreated)
# After 1 (May 24), 3 (July 19) and 5 (September) months post-injection, 5 trees of each treatment were felled and two 1.5 m long bolts were removed from the 3 m and 8 m heights of the bole. The bolts were transported to a nearby plantation that was recently thinned and contained fresh slash material. Each bolt was placed about 1 m apart on discarded, dry pine bolts to maximize surface area available for colonization as well as to discourage predation by ground and litter-inhabiting organisms. To facilitate timely bark beetle colonization, packets of bark beetle pheromones (racemic ipsdienol + lanerione combination, ipsenol or cis-verbenol; Phero Tech, Inc., Delta, BC, Canada) were attached separately to three 1 m stakes evenly spaced in the study area. Racemic ipsdienol and cis-verbenol were used with the second and third series of bolts deployed in July and September, respectively. The packets were removed after 2 weeks when signs of attacks (boring dust) were observed on most test bolts, signaling that naturally-produced pheromones were present.
# A clear panel of acetate (10 cm wide by 25 cm long) was attached to the center of each bolt after deployment of bolts to monitor arrival of bark beetles. The top surface of each panel was coated entirely with Stikem Special® trapping compound (Michel and Pelton, Emeryville, Calif.). The traps were left in place for two weeks.
# Each series of bolts were retrieved about 3 weeks after deployment, after observing many cerambycid egg niches on the bark surface of most bolts. There was concern that if cerambycid larvae were allowed to develop too long, their feeding activity would obscure or obliterate the Ips galleries. Thus, each series of bolts were retrieved and stored temporarily in a TFS seedling cooler (˜45° F.) to slow cerambycid development until the bolts could be evaluated.
# In the laboratory, two 10×50 cm strips (total=1000 cm^2) of bark were removed from each bolt. […]
# [3] = 1 Month Post-Injection (May), bolt height 3 m
# [4] = 1 Month Post-Injection (May), bolt height 8 m
# [5] = 3 Months Post-Injection (July), bolt height 3 m
# [6] = 3 Months Post-Injection (July), bolt height 8 m
# [7] = 5 Months Post-Injection (September), bolt height 3 m
# [8] = 5 Months Post-Injection (September), bolt height 8 m
substance,measurement,setting,value
4″-deoxy-4″-N-methylamino avermectin B1a/B1b [Emamectin],duration of protection,"[1]; pine, against pine wood nematode and coneworm",more than three years
same,efficacy against pine wood nematode,[1]; systemic activity in pine,highly effective
same,Length of Egg Galleries Total Length,[2]; [3],30.7 a cm
same,Length of Egg Galleries With Brood % Total,[2]; [3],49.5%
same,Length of Egg Galleries With Brood cm,[2]; [3],15.2 a cm
same,Length of Egg Galleries Without Brood % Total,[2]; [3],50.5%
same,Length of Egg Galleries Without Brood cm,[2]; [3],15.5 a cm
same,Mean # of Ips caught/Trap,[2]; [3],3.8 a
same,Mean # of Nuptial Chambers Without Egg Galleries No.,[2]; [3],14.6 c
same,Mean # of Nuptial Chambers Without Egg Galleries Total,[2]; [3],78.5
same,Mean # of Nuptial Chambers with Egg Galleries No.,[2]; [3],4.0 a
same,Mean # of Nuptial Chambers with Egg Galleries Total,[2]; [3],21.5
same,Mean Total # of Nuptial Chambers,[2]; [3],18.6 a
same,Number of Egg Galleries Total Galleries,[2]; [3],12.4 a
same,Number of Egg Galleries With Brood % Total,[2]; [3],19.4%
same,Number of Egg Galleries With Brood No.,[2]; [3],2.4 a
same,Number of Egg Galleries Without Brood % Total,[2]; [3],80.6%
same,Number of Egg Galleries Without Brood No.,[2]; [3],10.0 a
same,Length of Egg Galleries Total Length,[2]; [4],13.5 a cm
same,Length of Egg Galleries With Brood % Total,[2]; [4],8.9%
same,Length of Egg Galleries With Brood cm,[2]; [4],1.2 a cm
same,Length of Egg Galleries Without Brood % Total,[2]; [4],91.1%
same,Length of Egg Galleries Without Brood cm,[2]; [4],12.3 a cm
same,Mean # of Ips caught/Trap,[2]; [4],4.8 a
same,Mean # of Nuptial Chambers Without Egg Galleries No.,[2]; [4],9.0 c
same,Mean # of Nuptial Chambers Without Egg Galleries Total,[2]; [4],69.2
same,Mean # of Nuptial Chambers with Egg Galleries No.,[2]; [4],4.0 a
same,Mean # of Nuptial Chambers with Egg Galleries Total,[2]; [4],30.8
same,Mean Total # of Nuptial Chambers,[2]; [4],13.0 ab
same,Number of Egg Galleries Total Galleries,[2]; [4],4.2 a
same,Number of Egg Galleries With Brood % Total,[2]; [4],4.8%
same,Number of Egg Galleries With Brood No.,[2]; [4],0.2 a
same,Number of Egg Galleries Without Brood % Total,[2]; [4],95.2%
same,Number of Egg Galleries Without Brood No.,[2]; [4],4.0 a
same,Length of Egg Galleries Total Length,[2]; [5],0.0 a cm
same,Length of Egg Galleries With Brood cm,[2]; [5],0.0 a cm
same,Length of Egg Galleries Without Brood cm,[2]; [5],0.0 a cm
same,Mean # of Ips caught/Trap,[2]; [5],1.8 a
same,Mean # of Nuptial Chambers Without Egg Galleries No.,[2]; [5],11.0 b
same,Mean # of Nuptial Chambers Without Egg Galleries Total,[2]; [5],100.0
same,Mean # of Nuptial Chambers with Egg Galleries No.,[2]; [5],0.0 a
same,Mean # of Nuptial Chambers with Egg Galleries Total,[2]; [5],0.0
same,Mean Total # of Nuptial Chambers,[2]; [5],11.0 ab
same,Number of Egg Galleries Total Galleries,[2]; [5],0.0 a
same,Number of Egg Galleries With Brood No.,[2]; [5],0.0 a
same,Number of Egg Galleries Without Brood No.,[2]; [5],0.0 a
same,Length of Egg Galleries Total Length,[2]; [6],0.0 a cm
same,Length of Egg Galleries With Brood cm,[2]; [6],0.0 a cm
same,Length of Egg Galleries Without Brood cm,[2]; [6],0.0 a cm
same,Mean # of Ips caught/Trap,[2]; [6],3.4 a
same,Mean # of Nuptial Chambers Without Egg Galleries No.,[2]; [6],8.4 c
same,Mean # of Nuptial Chambers Without Egg Galleries Total,[2]; [6],100.0
same,Mean # of Nuptial Chambers with Egg Galleries No.,[2]; [6],0.0 a
same,Mean # of Nuptial Chambers with Egg Galleries Total,[2]; [6],0.0
same,Mean Total # of Nuptial Chambers,[2]; [6],8.4 b
same,Number of Egg Galleries Total Galleries,[2]; [6],0.0 a
same,Number of Egg Galleries With Brood No.,[2]; [6],0.0 a
same,Number of Egg Galleries Without Brood No.,[2]; [6],0.0 a
same,Length of Egg Galleries Total Length,[2]; [7],0.0 a cm
same,Length of Egg Galleries With Brood cm,[2]; [7],0.0 a cm
same,Length of Egg Galleries Without Brood cm,[2]; [7],0.0 a cm
same,Mean # of Ips caught/Trap,[2]; [7],1.2 a
same,Mean # of Nuptial Chambers Without Egg Galleries No.,[2]; [7],3.8 b
same,Mean # of Nuptial Chambers Without Egg Galleries Total,[2]; [7],100.0
same,Mean # of Nuptial Chambers with Egg Galleries No.,[2]; [7],0.0 a
same,Mean # of Nuptial Chambers with Egg Galleries Total,[2]; [7],0.0
same,Mean Total # of Nuptial Chambers,[2]; [7],3.8 a
same,Number of Egg Galleries Total Galleries,[2]; [7],0.0 a
same,Number of Egg Galleries With Brood No.,[2]; [7],0.0 a
same,Number of Egg Galleries Without Brood No.,[2]; [7],0.0 a
same,Length of Egg Galleries Total Length,[2]; [8],0.0 a cm
same,Length of Egg Galleries With Brood cm,[2]; [8],0.0 a cm
same,Length of Egg Galleries Without Brood cm,[2]; [8],0.0 a cm
same,Mean # of Ips caught/Trap,[2]; [8],0.4 a
same,Mean # of Nuptial Chambers Without Egg Galleries No.,[2]; [8],4.4 b
same,Mean # of Nuptial Chambers Without Egg Galleries Total,[2]; [8],100.0
same,Mean # of Nuptial Chambers with Egg Galleries No.,[2]; [8],0.0 a
same,Mean # of Nuptial Chambers with Egg Galleries Total,[2]; [8],0.0
same,Mean Total # of Nuptial Chambers,[2]; [8],4.4 a
same,Number of Egg Galleries Total Galleries,[2]; [8],0.0 a
same,Number of Egg Galleries With Brood No.,[2]; [8],0.0 a
same,Number of Egg Galleries Without Brood No.,[2]; [8],0.0 a
same,construction of egg galleries,"[2]; July and September, all bolts",completely prevented
same,attacks unsuccessful,"[2]; July and September, both heights",100%
same,reduction of length of egg galleries compared to check trees,[2]; 3 m,94%
same,reduction of total number of egg galleries compared to check trees,[2]; 3 m,81%
same,reduction of length of egg galleries compared to check trees,[2]; 8 m,99%
same,reduction of total number of egg galleries compared to check trees,[2]; 8 m,96%
same,attacks unsuccessful,"[2]; bolts evaluated in May, 3 m height",79%
same,attacks unsuccessful,"[2]; bolts evaluated in May, 8 m height",69%
same,preventing successful attacks by Ips bark beetles and cerambycids,"[2]; both examples, one, three and five months after injection",highly effective
